Test systems include 786-0; ACHN; BT-549; CAKI-1; HT-29; MDA-N; MOLT-4; NCI-H226; NCI-H522; OVCAR-5; OVCAR-8; PC-3; RPMI-8226; SK-MEL-2; SN12C; SNB-75; SR; T47D; U-251; UACC-62.
Common to all, as to assay: NCI anticancer screen, dose series, 48 h

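1) Cells in 96-well plates. 2) Compound, 48 h, 5 concentrations. 3) Linear interpolation between surrounding doses. 4) Unreached endpoint = highest concentration. GI50 marks 50% less growth.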 Active and inactive are the calls of the source. Cut-off read from the data, not from the text of the source: active = GI50 up to about 1.1 µM and inactive = higher. Bounds are passed on as bounds.

From ChEMBL document CHEMBL1201862, “PubChem BioAssay data set” (2004) come the findings set out here.

For `COc1cc(CNc2ccc3nc4n(c(=O)c3c2)CCCCC4)cc(OC)c1OC`, the GI50 was > 100 µM (inactive) with 786-0; 35.2 µM (inactive) in the experiment on ACHN; 19.6 µM (inactive) with BT-549; 64 µM (inactive) with CAKI-1; 81.7 µM (inactive) in the experiment on HT-29; 46.2 µM (inactive) with MDA-N. For the same compound, the GI50 in the experiment with MOLT-4 was 32.7 µM (inactive); in the experiment on NCI-H226, 78.9 µM (inactive); with NCI-H522, 39.9 µM (inactive); with OVCAR-5 it was > 100 µM (inactive); in the experiment on OVCAR-8 it was > 100 µM (inactive); in the experiment on PC-3, 44.4 µM (inactive). Moreover, the GI50 was 72.3 µM (inactive) in the experiment with RPMI-8226; 40.4 µM (inactive) with SK-MEL-2; > 100 µM (inactive) with SN12C; 48.9 µM (inactive) in the experiment with SNB-75; > 100 µM (inactive) with SR; 24.1 µM (inactive) with T47D. The GI50 was > 100 µM (inactive) with U-251 and 43.6 µM (inactive) in the experiment with UACC-62.
With `CC(C)(C)OC(=O)N1CCC2(CC1)C(=O)NCN2c1ccccc1`, the GI50 with 786-0, in the experiment with ACHN, in the experiment on BT-549, in the experiment on CAKI-1, with HT-29 and with MDA-N was > 100 µM (inactive) each time. The GI50 in the experiment with MOLT-4, in the experiment with NCI-H226, in the experiment on NCI-H522, with OVCAR-5, in the experiment with OVCAR-8 and with PC-3 was > 100 µM (inactive) each time. In addition, the GI50 in the experiment on RPMI-8226, in the experiment with SK-MEL-2, with SN12C, in the experiment on SNB-75, in the experiment on SR and in the experiment with T47D was > 100 µM (inactive) each time. In addition, the GI50 in the experiment with U-251 and in the experiment on UACC-62 was > 100 µM (inactive) in each case.
Take `O=C(/C=C/c1ccc(OCCSCCCCCCCCCCSCCOc2ccc(/C=C/C(=O)c3ccc(Cl)cc3)cc2)cc1)c1ccc(Cl)cc1`: the GI50 with 786-0 was 75.3 µM (inactive); in the experiment on ACHN, > 88.1 µM (inactive); with BT-549, > 100 µM (inactive); with CAKI-1, > 83.2 µM (inactive); in the experiment with HT-29, > 100 µM (inactive); in the experiment with MDA-N, > 100 µM (inactive). Moreover, the GI50 is > 100 µM (inactive) in the experiment on MOLT-4; > 76.2 µM (inactive) with NCI-H226; > 89.3 µM (inactive) in the experiment on NCI-H522; > 100 µM (inactive) in the experiment on OVCAR-5; > 100 µM (inactive) in the experiment with OVCAR-8; > 100 µM (inactive) in the experiment on PC-3. For the same compound, the GI50 in the experiment on RPMI-8226 is > 100 µM (inactive); with SK-MEL-2, 61.8 µM (inactive); with SN12C it was > 100 µM (inactive); with SNB-75 it was 30.8 µM (inactive); in the experiment on SR it was > 92.7 µM (inactive); in the experiment on T47D, > 100 µM (inactive). The GI50 with U-251 was 65.8 µM (inactive); in the experiment on UACC-62 it was > 80.9 µM (inactive).
In the case of `N#CNC(=N)Nc1ccc(Cl)cc1`, the GI50 in the experiment with 786-0, in the experiment with ACHN, with BT-549, with CAKI-1, in the experiment on HT-29 and in the experiment with MDA-N was > 100 µM (inactive) each time. Moreover, the GI50 was 36.4 µM (inactive) in the experiment with MOLT-4; 85.1 µM (inactive) with NCI-H226; > 100 µM (inactive) with NCI-H522; > 100 µM (inactive) with OVCAR-5; > 100 µM (inactive) in the experiment with OVCAR-8; > 100 µM (inactive) in the experiment on PC-3. Further, the GI50 with RPMI-8226, in the experiment on SK-MEL-2, in the experiment on SN12C, with SNB-75, in the experiment on SR and in the experiment with T47D was > 100 µM (inactive) each time. For the same compound, the GI50 with U-251 and in the experiment on UACC-62 was > 100 µM (inactive) each time.
`CC12ON(P(=O)(c3ccccc3)c3ccccc3)C(C)(c3ccccc31)c1ccccc12`: the GI50 in the experiment on 786-0, in the experiment on ACHN, with BT-549, in the experiment on CAKI-1, with HT-29 and with MDA-N was > 100 µM (inactive) in each case. Moreover, the GI50 is 32.7 µM (inactive) in the experiment on MOLT-4; > 100 µM (inactive) in the experiment on NCI-H226; > 100 µM (inactive) with NCI-H522; > 100 µM (inactive) in the experiment with OVCAR-5; > 100 µM (inactive) in the experiment on OVCAR-8; > 100 µM (inactive) with PC-3. In addition, the GI50 in the experiment with RPMI-8226 is 58.9 µM (inactive); in the experiment on SK-MEL-2 it was > 100 µM (inactive); in the experiment on SN12C it was > 100 µM (inactive); in the experiment on SNB-75 it was > 100 µM (inactive); in the experiment with SR it was 46.1 µM (inactive); in the experiment on T47D, 51.3 µM (inactive). In addition, the GI50 in the experiment on U-251 and in the experiment on UACC-62 was > 100 µM (inactive) in each case.
Regarding `Nc1nc(SCc2ccccc2[N+](=O)[O-])c2[nH]cnc2n1`, the GI50 was > 65.2 µM (inactive) in the experiment on 786-0; > 57.8 µM (inactive) in the experiment on ACHN; 26.2 µM (inactive) with BT-549; 38.7 µM (inactive) in the experiment on CAKI-1; 32.8 µM (inactive) in the experiment with HT-29; 27.9 µM (inactive) in the experiment on MDA-N. The GI50 was > 100 µM (inactive) in the experiment on MOLT-4; > 50.9 µM (inactive) with NCI-H226; > 31.8 µM (inactive) with NCI-H522; 42.3 µM (inactive) in the experiment with OVCAR-5; > 52.8 µM (inactive) with OVCAR-8; 31.5 µM (inactive) in the experiment with PC-3. For the same compound, the GI50 with RPMI-8226 was > 47.2 µM (inactive); with SK-MEL-2, 26.7 µM (inactive); with SN12C, > 57.1 µM (inactive); with SNB-75, > 42.5 µM (inactive); with SR, > 51.6 µM (inactive); in the experiment with T47D, 23.3 µM (inactive). Besides, the GI50 in the experiment on U-251 was > 61.9 µM (inactive); in the experiment on UACC-62, 37.3 µM (inactive).
Regarding `C/C(=N\NC(=S)Nc1ccccc1)c1nc2cccnc2[nH]1`, the GI50 in the experiment on 786-0 is 2.54 µM (inactive); in the experiment with ACHN, 1.44 µM (inactive); with BT-549, 5.26 µM (inactive); in the experiment on CAKI-1, 4.63 µM (inactive); with HT-29 it was 0.826 µM (active); in the experiment on MDA-N, 5.65 µM (inactive). Further, the GI50 with MOLT-4 is 0.706 µM (active); with NCI-H226, 2.59 µM (inactive); with NCI-H522 it was 2.18 µM (inactive); in the experiment on OVCAR-5, 4.79 µM (inactive); with OVCAR-8, 2.76 µM (inactive); in the experiment on PC-3, 3.4 µM (inactive). The GI50 in the experiment with RPMI-8226 is 3.75 µM (inactive); in the experiment on SK-MEL-2, 16.9 µM (inactive); in the experiment on SN12C, 4.33 µM (inactive); with SNB-75 it was 12.2 µM (inactive); in the experiment with SR, 0.766 µM (active); with T47D it was 0.193 µM (active). Moreover, the GI50 with U-251 is 2.49 µM (inactive); with UACC-62, 2.85 µM (inactive).
`COc1ccc(-n2c(C)nc3ccc(NC4OC(COC(C)=O)C(OC(C)=O)C(OC(C)=O)C4OC(C)=O)cc3c2=O)cc1` (stereo not given): the GI50 in the experiment on 786-0 is 24.8 µM (inactive); in the experiment with ACHN, > 100 µM (inactive); with BT-549 it was > 100 µM (inactive); in the experiment on CAKI-1 it was 19.7 µM (inactive); in the experiment on HT-29, 53.3 µM (inactive); with MDA-N it was 83.4 µM (inactive). Also, the GI50 is 27.4 µM (inactive) with MOLT-4; 32.7 µM (inactive) in the experiment on NCI-H226; 21.8 µM (inactive) in the experiment on NCI-H522; > 100 µM (inactive) in the experiment with OVCAR-5; 32.9 µM (inactive) in the experiment on OVCAR-8; > 100 µM (inactive) in the experiment on PC-3. Also, the GI50 in the experiment with RPMI-8226 is 27.1 µM (inactive); in the experiment with SK-MEL-2, > 100 µM (inactive); in the experiment with SN12C, 32 µM (inactive); in the experiment with SNB-75 it was > 100 µM (inactive); in the experiment with SR, 73.3 µM (inactive); with T47D it was > 100 µM (inactive). The values for the GI50 in the experiment with U-251 and in the experiment with UACC-62 were > 100 µM (inactive) and 67 µM (inactive), respectively.
For `Cc1ccc(OCC2OC(n3cnc4c(Br)nc(Br)nc43)CC2Oc2ccc(C)cc2)cc1` (stereo not given), the GI50 with 786-0 was 3.02 µM (inactive); in the experiment on ACHN it was 2.32 µM (inactive); in the experiment with BT-549 it was 18.6 µM (inactive); in the experiment on CAKI-1, 1.97 µM (inactive); in the experiment on HT-29 it was 2.9 µM (inactive); in the experiment with MDA-N, 2.94 µM (inactive). Also, the GI50 is 2.1 µM (inactive) in the experiment with MOLT-4; 14.6 µM (inactive) in the experiment with NCI-H226; 1.86 µM (inactive) with NCI-H522; 12.3 µM (inactive) with OVCAR-5; 3.69 µM (inactive) in the experiment with OVCAR-8; 2.94 µM (inactive) in the experiment on PC-3. In addition, the GI50 is 9.29 µM (inactive) in the experiment with RPMI-8226; 2.75 µM (inactive) with SK-MEL-2; 3.37 µM (inactive) in the experiment on SN12C; 3.09 µM (inactive) in the experiment with SNB-75; 1.96 µM (inactive) in the experiment on SR; 10.8 µM (inactive) in the experiment on T47D. Also, the GI50 in the experiment on U-251 was 2.24 µM (inactive); in the experiment on UACC-62, 7.35 µM (inactive).
For `O=c1/c(=C\c2ccccc2)sc2n1C(c1ccccc1)C1(O)CCCCC1N=2` (stereo not given), the GI50 is > 100 µM (inactive) with 786-0; 87.9 µM (inactive) in the experiment with ACHN; > 100 µM (inactive) in the experiment on BT-549; > 100 µM (inactive) in the experiment with CAKI-1; > 100 µM (inactive) in the experiment on HT-29; > 100 µM (inactive) in the experiment with MDA-N. The GI50 with MOLT-4 is 42.1 µM (inactive); in the experiment on NCI-H226 it was > 100 µM (inactive); with NCI-H522, > 100 µM (inactive); with OVCAR-5 it was > 100 µM (inactive); in the experiment on OVCAR-8, > 100 µM (inactive); in the experiment on PC-3, 69.7 µM (inactive). Moreover, the GI50 in the experiment with RPMI-8226 was 59.8 µM (inactive); in the experiment with SK-MEL-2, 62.1 µM (inactive); in the experiment with SN12C it was > 100 µM (inactive); with SNB-75 it was > 100 µM (inactive); in the experiment with SR, 62.5 µM (inactive); in the experiment on T47D it was 51.5 µM (inactive). Further, the GI50 in the experiment with U-251 and in the experiment on UACC-62 was > 100 µM (inactive) throughout.
